Literature values as cited in patent US5855881A, “Mammalian alcohol dehydrogenase and aldehyde dehydrogenase production in plants” (priority 1996, dated 1999).

How the values were obtained:
[1] = molecular target: T1, human ALDH3 (aldehyde dehydrogenase) (Homo sapiens, UniProt P30838); conditions: read-out: Km toward acetaldehyde
T1 construct: at least five ALDHs that have been purified and characterized from human liver or stomach; host or cells: purified from human liver or stomach (Yin et al. 1993)
T1 sequence (P30838 1-453): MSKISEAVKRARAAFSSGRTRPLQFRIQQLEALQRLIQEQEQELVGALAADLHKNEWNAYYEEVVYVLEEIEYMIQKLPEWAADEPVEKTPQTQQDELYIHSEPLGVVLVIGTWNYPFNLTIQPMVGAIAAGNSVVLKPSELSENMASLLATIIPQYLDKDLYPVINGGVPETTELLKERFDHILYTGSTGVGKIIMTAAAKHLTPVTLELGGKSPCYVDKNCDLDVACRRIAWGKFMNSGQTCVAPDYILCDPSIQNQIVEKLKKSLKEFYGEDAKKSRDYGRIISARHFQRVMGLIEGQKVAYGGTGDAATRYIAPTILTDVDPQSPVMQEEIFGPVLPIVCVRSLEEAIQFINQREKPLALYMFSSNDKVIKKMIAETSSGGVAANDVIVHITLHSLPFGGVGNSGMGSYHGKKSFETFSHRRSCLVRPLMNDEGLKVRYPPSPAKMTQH

[2] = molecular target: T2, human ALDH4 (glutamic γ semialdehyde dehydrogenase, GSDH) (Homo sapiens, UniProt P30038); conditions: read-out: Km toward acetaldehyde
T2 construct: at least five ALDHs that have been purified and characterized from human liver or stomach; host or cells: purified from human liver or stomach (Yin et al. 1993)
T2 sequence (P30038 25-563): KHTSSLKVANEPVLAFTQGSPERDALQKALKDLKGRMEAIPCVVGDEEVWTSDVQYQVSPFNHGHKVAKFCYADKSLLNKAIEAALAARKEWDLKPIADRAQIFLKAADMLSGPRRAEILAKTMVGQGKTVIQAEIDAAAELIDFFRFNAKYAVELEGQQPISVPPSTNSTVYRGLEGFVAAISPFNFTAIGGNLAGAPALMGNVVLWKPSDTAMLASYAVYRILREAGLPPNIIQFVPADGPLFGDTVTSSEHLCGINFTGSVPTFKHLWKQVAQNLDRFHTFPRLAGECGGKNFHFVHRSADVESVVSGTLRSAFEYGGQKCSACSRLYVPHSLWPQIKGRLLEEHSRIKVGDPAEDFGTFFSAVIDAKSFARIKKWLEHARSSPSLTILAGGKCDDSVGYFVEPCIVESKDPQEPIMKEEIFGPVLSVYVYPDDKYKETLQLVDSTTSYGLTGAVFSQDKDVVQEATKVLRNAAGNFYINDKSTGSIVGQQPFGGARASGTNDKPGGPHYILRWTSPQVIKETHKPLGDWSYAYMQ

[3] = molecular target: T3, human mitochondrial ALDH2 (aldehyde dehydrogenase) (Homo sapiens, UniProt P05091); conditions: read-out: Km toward acetaldehyde
T3 construct: at least five ALDHs that have been purified and characterized from human liver or stomach; host or cells: purified from human liver or stomach (Yin et al. 1993)
T3 sequence (P05091 18-517): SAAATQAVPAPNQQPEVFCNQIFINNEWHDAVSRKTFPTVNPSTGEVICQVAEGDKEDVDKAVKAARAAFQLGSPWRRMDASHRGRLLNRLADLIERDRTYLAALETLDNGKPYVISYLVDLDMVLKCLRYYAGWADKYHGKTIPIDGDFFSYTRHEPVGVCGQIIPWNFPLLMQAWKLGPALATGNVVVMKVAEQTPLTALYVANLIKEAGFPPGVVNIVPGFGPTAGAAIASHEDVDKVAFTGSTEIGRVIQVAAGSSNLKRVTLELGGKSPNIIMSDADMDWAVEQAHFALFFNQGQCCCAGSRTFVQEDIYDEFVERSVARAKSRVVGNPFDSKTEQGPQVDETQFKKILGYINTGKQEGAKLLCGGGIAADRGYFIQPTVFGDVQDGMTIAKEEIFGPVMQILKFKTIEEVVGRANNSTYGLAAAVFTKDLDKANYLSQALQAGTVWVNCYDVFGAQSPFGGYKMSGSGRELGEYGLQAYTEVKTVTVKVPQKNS

[4] = molecular target: T4, human cytosolic ALDH1 (aldehyde dehydrogenase) (Homo sapiens, UniProt P00352); conditions: read-out: Km toward acetaldehyde
T4 construct: at least five ALDHs that have been purified and characterized from human liver or stomach; host or cells: purified from human liver or stomach (Yin et al. 1993)
T4 sequence (P00352 1-501): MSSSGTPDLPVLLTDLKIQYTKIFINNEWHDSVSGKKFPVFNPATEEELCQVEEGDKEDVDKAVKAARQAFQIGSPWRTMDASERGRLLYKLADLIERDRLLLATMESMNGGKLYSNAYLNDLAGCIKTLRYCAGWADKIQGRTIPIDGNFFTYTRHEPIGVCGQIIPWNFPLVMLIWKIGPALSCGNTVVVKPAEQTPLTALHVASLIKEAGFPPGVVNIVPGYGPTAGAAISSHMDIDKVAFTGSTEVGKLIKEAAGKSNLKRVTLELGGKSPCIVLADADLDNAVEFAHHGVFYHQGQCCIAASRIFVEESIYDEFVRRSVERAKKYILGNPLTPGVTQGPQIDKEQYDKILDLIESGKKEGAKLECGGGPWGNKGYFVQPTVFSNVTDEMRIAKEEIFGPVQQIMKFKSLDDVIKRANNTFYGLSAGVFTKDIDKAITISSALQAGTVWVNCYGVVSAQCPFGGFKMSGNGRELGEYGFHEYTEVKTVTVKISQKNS

[5] = molecular target: T5, human γ-aminobutyraldehyde dehydrogenase (GABALDH) (Homo sapiens, UniProt P49189); conditions: read-out: Km toward acetaldehyde
T5 construct: γ-aminobutyraldehyde dehydrogenase has been purified from liver; host or cells: purified from human liver (Yin et al. 1993)

[6] = molecular target: human class IV σ-ADH (stomach alcohol dehydrogenase) (Homo sapiens, UniProt P40394)
human class IV σ-ADH (stomach alcohol dehydrogenase), sequence (P40394 14-386 limits assumed): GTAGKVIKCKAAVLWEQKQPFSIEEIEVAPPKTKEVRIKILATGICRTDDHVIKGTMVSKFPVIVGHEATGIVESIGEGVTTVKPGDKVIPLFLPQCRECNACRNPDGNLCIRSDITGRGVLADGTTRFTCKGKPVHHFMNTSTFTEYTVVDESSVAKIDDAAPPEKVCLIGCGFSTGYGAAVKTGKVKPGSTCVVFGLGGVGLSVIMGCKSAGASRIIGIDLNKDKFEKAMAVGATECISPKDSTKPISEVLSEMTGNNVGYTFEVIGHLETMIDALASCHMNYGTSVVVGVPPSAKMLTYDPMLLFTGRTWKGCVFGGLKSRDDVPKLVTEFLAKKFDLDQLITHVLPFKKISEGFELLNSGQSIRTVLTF

T5 sequence (P49189 whole entry): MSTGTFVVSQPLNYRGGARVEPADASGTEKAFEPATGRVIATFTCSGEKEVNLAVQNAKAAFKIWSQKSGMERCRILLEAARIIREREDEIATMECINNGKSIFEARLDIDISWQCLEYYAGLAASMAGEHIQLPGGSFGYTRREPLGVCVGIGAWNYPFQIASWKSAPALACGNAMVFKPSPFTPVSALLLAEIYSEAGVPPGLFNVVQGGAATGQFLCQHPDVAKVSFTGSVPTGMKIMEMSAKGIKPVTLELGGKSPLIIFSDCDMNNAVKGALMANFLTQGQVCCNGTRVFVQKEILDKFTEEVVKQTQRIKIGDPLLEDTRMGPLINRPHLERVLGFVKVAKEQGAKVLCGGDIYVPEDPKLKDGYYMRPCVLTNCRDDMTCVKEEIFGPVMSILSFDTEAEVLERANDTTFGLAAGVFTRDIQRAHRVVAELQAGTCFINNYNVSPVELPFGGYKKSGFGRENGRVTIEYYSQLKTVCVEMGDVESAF

CC=O [acetaldehyde]
Km [1]: 83000 µM
Km [2]: 5000 µM
Km [3]: 3 µM
Km [4]: 30 µM
Km [5]: 50 µM

CCO [ethanol]
kcat for ethanol oxidation ([6]; enzyme isolated from human stomach tissue): 16.67 to 25 s⁻¹
kcat value for ethanol ([6]; pH 7.5): about 1000
Km ([6]; read-out: Km for ethanol, enzyme isolated from human stomach tissue): ~41000 µM
